Tests used:
PP1 = molecular target: T1, PP1 (Homo sapiens, UniProt P36873); assay: SPR binding to PP1 alone; settings: SPR steady-state, bio-PP1c surface
T1 construct: made in house; host or cells: Sf9 insect cells (baculovirus, pDW464)

ATF4 = ATF4 immunoblot in cells; type: cell-based, human; settings: 20 μM; 0, 2, 5, 7.5 h, FIG. 13
Description: (§1) For immunoblots, HeLa cells (80,000 cells/ml) were plated in 12-well plates 24 hours before each experiment. Immediately after the indicated treatments, cells were lysed in 75 μl Laemmli Buffer, boiled at 95° C. for 5 minutes and sonicated. Proteins were separated and analysed as described (Tsaytler et al., Science, 332, 91-94, 2011) with the following antibodies: phospho-elf2α [pS52] and PPP1R15A/GADD34 (10449-1-AP; ProteinTech Group, 1/1000 dilution) and ATF4 (Sc-200 Santa Cruz).
Translation can be inhibited at many levels. To ensure that the R15A and B inhibitors are on-target, we monitor the levels of ATF4 in cells treated with compounds. A R15A/B inhibitor persistently induce eIF2α phosphorylation and eIF2α phosphorylation results in ATF4 translation. We show here that an A/B inhibitor indeed induces ATF4, confirming target engagement in cells.

eIF2α phosphorylation [1] = assay: Assay 2: eIF2α phosphorylation in cells in the absence of stress; type: cell-based; settings: human cells
Description: (§2) HeLa cells were cultured in Dulbecco's Modified Eagle's Media (DMEM) supplemented with penicillin, streptomycin, containing 5% and 10% fetal bovine serum (FBS), respectively. MEF cells were cultured in DMEM supplemented with penicillin, streptomycin, glutamine, 55 μM β-mercaptoethanol, 1× non-essential amino acids (Sigma-Adrich) and 10% FBS. Where indicated, cells were treated with 2.5 μg/ml tunicamycin, 1 mM DTT (Sigma-Adrich) and or the indicated compounds at the indicated concentrations.
as §1
Human cells were treated with a PPP1R15B inhibitor and eIF2α phosphorylation was monitored over time. […] This was manifested between 1 and 7.5 hours after addition of the compound of Example 1. […] Indeed, the inventors noticed that PPP1R15A was induced at the late time points following addition of the compound of Example 1 (see Assay 3). […] Furthermore, this establishes that the compound of Example 1 spares PPP1R15A. […]

mice = assay: Side effects of Guanabenz: activity of mice after dosing; type: in vivo; settings: 10 mg/kg oral gavage
Description: To assess whether of a compound of Example 1 had the side effects of Guanabenz, mice (n>3) were gavaged orally with 10 mg/kg of compound or Guanabenz. Their activity was monitored 30 minutes following dosing.
In humans, the adrenergic agonist activity of Guanabenz has side effects including drowsiness and coma at high doses (A. H. Hall, Ann Intern Med 102; 787-788; 1985). Due to of these side effects, Guanabenz is no longer used in human. It is anticipated that Guanabenz derivatives have the side effects of Guanabenz, associated with alpha-2 adrenergic activity.

PPP1R15A = assay: Assay 3: expression of PPP1R15A in cells; type: cell-based, human; settings: late time points after addition, FIG. 2B
Description: as §1
Cells and organisms usually have mechanisms to compensate for deficiencies. The inventors therefore considered whether cells might compensate for PPP1R15B inhibition by inducing PPP1R15A. It has been previously reported that PPP1R15A levels are increased in the liver of PPP1R15B knock-out mice (Harding et al., Proc. Natl. Acad. Sci. U.S.A., 106, 1832-1837, 2009). It is unknown whether this compensatory response is specific to the liver or if it can happen in cells or other tissues. Furthermore, prior to this study, it was unknown whether PPP1R15A induction can be observed upon pharmacological inhibition of PPP1R15B, as they were no selective inhibitors of PPP1R15B prior to this study.

Db/db animals = assay: Blood glucose in obese db/db mice; type: in vivo; settings: 1 mg/kg once a day, three weeks
Description: For treatment of a metabolic disorder, Db/db animals (n=5 per condition) were treated once a day with 1 mg/kg of compound of Example 1 for three weeks. Blood glucose levels were measured with a blood glucose meter (DSI) between 9 and 10 am. Data are mean+/−S.e.m.
It is known that metabolic diseases such as diabetes, obesity, fatty liver disease, and atherosclerosis are associated with pathological ER stress and it is believed that pharmacological modulators of the UPR may have therapeutic benefit. As there were no PPP1R15B inhibitors available prior to this study it was unclear whether PPP1R15B could be a therapeutic target in metabolic diseases. […] Having shown in one disease model that treatment with a compound of Example 1 is beneficial, it is evident that the compounds of the invention will be beneficial to other mammalian metabolic disorders such as diabetes, obesity, fatty liver disease, and atherosclerosis.

[2] = Tissue distribution in mice after oral gavage; type: in vivo; settings: plasma, brain, spinal cord, pancreas, liver
eIF2α phosphorylation [3] = assay: Assay 5: eIF2α phosphorylation during stress-recovery (DTT wash out); type: cell-based; settings: 30 minute 1 mM DTT and wash out, before R15A is expressed
Description: as §2, §1
The inventors reasoned that a PPP1R15B inhibitor should prolong eIF2α phosphorylation following stress. […] The inventors took advantage of the fast kinetic and reversibility of stress induction by DTT (Bertolotti et al., Nat. Cell. Biol., 2, 326-332, 2000; Jousse et al., 2003) and monitored eIF2α phosphorylation in cells following a 30 minute treatment with 1 mM DTT and a wash out. […]

[4] = Toxicity in mice (clinical signs, weight); type: in vivo; parameters: clinical signs: dose or concentration left out as unconfirmed; settings: 2 weeks, oral
Description: For studying the effect of a compound of Example 1 on weight, C3H/B6 mice were gavaged orally once a day with compounds of Example 1 and mice weight was recorded daily for 2 weeks.
Mice were treated with Example 1 and monitored closely to detect any clinical signs. […] This establishes that PPP1R15B inhibition is not toxic. This was surprising and unanticipated as prior to this study one would have speculated that PPP1R15B inhibitors would be so deleterious that they would have no therapeutic potential.

T1 sequence (P36873 whole entry): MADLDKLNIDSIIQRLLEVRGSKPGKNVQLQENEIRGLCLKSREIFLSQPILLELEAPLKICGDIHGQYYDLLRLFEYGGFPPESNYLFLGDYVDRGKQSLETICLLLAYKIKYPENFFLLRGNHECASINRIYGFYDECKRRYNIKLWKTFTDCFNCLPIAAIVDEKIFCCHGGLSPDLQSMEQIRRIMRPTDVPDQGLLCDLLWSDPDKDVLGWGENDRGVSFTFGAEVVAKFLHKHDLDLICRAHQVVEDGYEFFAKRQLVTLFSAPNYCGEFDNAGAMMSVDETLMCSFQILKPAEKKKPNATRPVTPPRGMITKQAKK

Row | Compound | Kd (PP1) [µM] | also measured
1 | [H]/N=C(\N)NN=Cc1ccc(Cl)cc1 [Compound 1, (E)-2-((4-chlorophenyl)methylene)hydrazine-1-carboximidamide] | 6.28 | –
2 | N=C(N)N/N=C/c1cc(Cl)c(Cl)c(Cl)c1 [Compound 3, (E)-2-(3,4,5-trichlorobenzylidene)hydrazine-1-carboximidamide] | 10.3 | –
3 | [H]/N=C(\N)NN=Cc1cc(Cl)c(F)c(Cl)c1 [Compound 5, (E)-2-(3,5-dichloro-4-fluorobenzylidene)hydrazine-1-carboximidamide] | 30.6 | –
4 | [H]/N=C(\N)NN=Cc1cc(F)c(Cl)cc1Cl [Compound 7, (E)-2-(2,4-dichloro-5-fluorobenzylidene)hydrazine-1-carboximidamide] | 13 | –
5 | [H]/N=C(\N)NN=Cc1ccc(Cl)c(F)c1 [Compound 8, (E)-2-(4-chloro-3-fluorobenzylidene)hydrazine-1-carboximidamide] | 10.6 ± 3.82 | –
6 | [H]/N=C(\N)NN=Cc1cccc(Cl)c1Br [Compound 9, (E)-2-(2-bromo-3-chlorobenzylidene)hydrazine-1-carboximidamide] | 14.7 ± 1.4 | –
7 | [H]/N=C(\N)NN=Cc1cc(Cl)cc(Cl)c1Cl [Compound 10, (E)-2-(2,3,5-trichlorobenzylidene)hydrazine-1-carboximidamide] | – | expression of ATF4 (immunoblot) (ATF4): induces expression of ATF4
8 | [H]/N=C(\N)NN=Cc1ccc(F)c(Cl)c1 [Compound 15, (E)-2-(3-chloro-4-fluorobenzylidene)hydrazine-1-carboximidamide] | 6.14 ± 0.28 | –
9 | [H]/N=C(\N)NN=Cc1cccc(Cl)c1Cl [Compound 16, (E)-2-(2,3-dichlorobenzylidene)hydrazine-1-carboximidamide] | – | eIF2α phosphorylation (eIF2α phosphorylation [1]; 10 hours after addition): returned to basal levels; eIF2α phosphorylation (eIF2α phosphorylation [1]; between 1 and 7.5 hours after addition): induced eIF2α phosphorylation; activity of mice 30 minutes following dosing (mice): as active as untreated mice; expression of PPP1R15A in cells (PPP1R15A): induce PPP1R15A; blood glucose (Db/db animals): reduced the pathological high blood glucose; tissue distribution [2]: extensive tissue distribution; eIF2α phosphorylation following stress (eIF2α phosphorylation [3]): prolongs eIF2⊐ phosphorylation following stress; clinical signs [4]: undistinguishable from mice treated with placebo; weight gain ([4]; up to 10 mg/mg once a day): gained weight normally
10 | [H]/N=C(\N)NN=Cc1ccccc1F [Compound 17, (E)-2-(2-fluorobenzylidene)hydrazine-1-carboximidamide] | 12 ± 0.8 | –
11 | N=C(N)N/N=C/c1cc(Cl)c(Cl)cc1F [Compound 18, (E)-2-(4,5-dichloro-2-fluorobenzylidene)hydrazine-1-carboximidamide] | 10.2 ± 0.14 | –
12 | [H]/N=C(\N)NN=Cc1cccc(Cl)c1 [Compound 24, (E)-2-(3-chlorobenzylidene)hydrazine-1-carboximidamide] | 6.27 | –
13 | [H]/N=C(\N)NN=Cc1cccc(Cl)c1F [Compound 30, (E)-2-(3-chloro-2-fluorobenzylidene)hydrazine-1-carboximidamide] | 12.8 ± 0.08 | –
14 | [H]/N=C(\N)NN=Cc1c(Cl)ccc(Cl)c1Cl [Compound 31, (E)-2-(2,3,6-trichlorobenzylidene)hydrazine-1-carboximidamide] | 12.6 ± 1.4 | –

Source: patent US11154519B2, “Inhibitors and their uses” (MEDICAL RESEARCH COUNCIL, priority 2015, dated 2021)
